Entries after “also recorded” stand apart in the source; their conditions may differ.
Assays:
[1] = molecular target: T1, hA3AR (Homo sapiens, UniProt P0DMS8)
T1 sequence (P0DMS8 1-318): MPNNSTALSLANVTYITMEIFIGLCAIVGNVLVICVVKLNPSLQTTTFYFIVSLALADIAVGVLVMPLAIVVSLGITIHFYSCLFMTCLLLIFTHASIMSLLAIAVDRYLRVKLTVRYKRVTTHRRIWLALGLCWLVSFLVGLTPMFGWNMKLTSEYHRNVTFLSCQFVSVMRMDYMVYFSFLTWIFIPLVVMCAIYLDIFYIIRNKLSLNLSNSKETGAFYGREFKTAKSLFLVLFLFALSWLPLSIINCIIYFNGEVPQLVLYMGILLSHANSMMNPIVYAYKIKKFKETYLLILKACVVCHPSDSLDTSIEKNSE

[2] = molecular target: T1, hA3AR; settings: fixed concentration of 15 (10 μM), Figure 1C
[3] = test system: 45 receptors, channels and transporters; assay: Off-target screen in radioligand binding assays; settings: Table S1
[4] = molecular target: T2, mA3AR (Mus musculus, UniProt Q61618)
T2 sequence (Q61618 1-319): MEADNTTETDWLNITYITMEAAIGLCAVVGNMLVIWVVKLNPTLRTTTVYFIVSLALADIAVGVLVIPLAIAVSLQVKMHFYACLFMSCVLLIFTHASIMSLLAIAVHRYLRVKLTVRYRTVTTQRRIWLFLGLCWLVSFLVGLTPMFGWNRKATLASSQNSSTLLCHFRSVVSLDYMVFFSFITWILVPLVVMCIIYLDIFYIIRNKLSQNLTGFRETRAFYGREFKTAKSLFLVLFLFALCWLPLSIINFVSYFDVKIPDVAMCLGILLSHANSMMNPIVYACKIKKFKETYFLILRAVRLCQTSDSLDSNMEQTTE

[5] = test system: wild-type C57BL/6 (WT) or A3AR-KO mice; assay: Mouse model of A3AR-induced hypothermia; format: in vivo
[6] = molecular target: translocator protein, TSPO (Rattus norvegicus, UniProt P16257); assay: Off-target radioligand binding, TSPO
translocator protein, TSPO, sequence (P16257 whole entry): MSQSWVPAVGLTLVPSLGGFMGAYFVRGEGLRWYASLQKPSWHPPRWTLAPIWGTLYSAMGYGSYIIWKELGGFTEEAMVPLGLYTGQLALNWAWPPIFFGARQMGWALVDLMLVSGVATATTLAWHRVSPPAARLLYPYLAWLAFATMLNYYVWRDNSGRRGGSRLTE

Oc1ccc(CCNc2nc(C#Cc3ccccc3)nc3c2ncn3[C@H]2[C@H](O)[C@H](O)[C@@H]3C[C@@H]32)cc1F [Compound 11, (1R,2R,3S,4R,5S)-4-(6-((3-Fluoro-4-hydroxyphenethyl)amino)-2-(phenylethynyl)-9H-purin-9-yl)bicyclo[3.1.0]hexane-2,3-diol] was tested, and the “increase of hA3AR affinity compared to 8” value [1] was 2 fold.
With COc1cc(CCNc2nc(C#Cc3ccccc3)nc3c2ncn3[C@H]2[C@H](O)[C@H](O)[C@@H]3C[C@@H]32)ccc1O [Compound 15, (1R,2R,3S,4R,5S)-4-(6-((4-Hydroxy-3-methoxyphenethyl)amino)-2-(phenylethynyl)-9H-purin-9-yl)bicyclo[3.1.0]hexane-2,3-diol] the “Antagonism of hA3AR activation by Cl-IB-MECA 38 in cAMP assay” value [2] was “greatly inhibited the activation of hA3AR by Cl-IB-MECA; also recorded: shifted the concentration-response curve of Cl-IB-MECA 38 rightward”, the “Interaction with other GPCRs” value [3] was “did not interact” and the “increase of mA3AR affinity compared to 8” value [4] was ~ 27 fold. For the same molecule, the “Effect of pretreatment on hypothermic effect of full agonist 39” value ([5]; 3 mg/kg or 10 mg/kg 15, 30 min prior to 39 (3 mg/kg)) was “did not significantly attenuate”, the “Effect on core body temperature (Tb)” value ([5]; 3 mg/kg, i.p., WT mice (Figure 2B)) was “only weak hypothermia” and the “Effect on core body temperature (Tb) in ADORA3−/− mice” value ([5]; 10 mg/kg, i.p., ADORA3−/− mice, versus WT (Figure 2A)) was “greatly attenuated”. The “Effect on core body temperature (Tb)” value ([5]; 10 mg/kg, i.p., wild-type C57BL/6 mice (Figure 2A)) was “lowered core body temperature”, the “Period over which in vivo agonism was maintained” value ([5]; mouse) was over 2 h and the “increase of hA3AR affinity compared to 8” value [1] was ~ 2 fold.
For O[C@@H]1[C@H](O)[C@@H]2C[C@@H]2[C@H]1n1cnc2c(N[C@H]3C[C@@H]3c3ccccc3)nc(C#Cc3ccc(Cl)s3)nc21 [Compound 31, (1R,2R,3S,4R,5S)-4-(2-((5-Chlorothiophen-2-yl)ethynyl)-6-(((1S,2R)-2-phenylcyclopropyl)amino)-9H-purin-9-yl)bicyclo[3.1.0]hexane-2,3-diol], the “reduction of hA3AR affinity by cyclopropyl constraint of the N6-2-phenylethyl moiety” value ([1]; compared to N6-2-phenylethyl analogue) was ~ 10 fold.
CNC(=O)[C@@]12C[C@@H]1[C@@H](n1cnc3c(NCc4cccc(Cl)c4)nc(C#Cc4ccc(F)c(F)c4)nc31)[C@H](O)[C@@H]2O [Compound 39, (1S,2R,3S,4R,5S)-4-(6-((3-chlorobenzyl)amino)-2-((3,4-difluorophenyl)-ethynyl)-9H-purin-9-yl)-2,3-dihydroxy-N-methylbicyclo[3.1.0]hexane-1-carboxamide, reference compound] was tested, and the Hypothermic effect ([5]; 3 mg/kg, mice) was “pronounced hypothermic effect”.
COc1cc(CCNc2nc(C#Cc3ccc(Cl)s3)nc3c2ncn3[C@H]2[C@H](O)[C@H](O)[C@@H]3C[C@@H]32)ccc1O [Compound 29, (1R,2R,3S,4R,5S)-4-(2-((5-Chlorothiophen-2-yl)ethynyl)-6-((4-hydroxy-3-methoxyphenethyl)amino)-9H-purin-9-yl)bicyclo[3.1.0]hexane-2,3-diol] was tested, and the “reduction of mA3AR affinity compared to 15” value [4] was 4 fold.
For COc1ccc(CCNc2nc(C#Cc3ccccc3)nc3c2ncn3[C@H]2[C@H](O)[C@H](O)[C@@H]3C[C@@H]32)cc1O [Compound 14, (1R,2R,3S,4R,5S)-4-(6-((3-Hydroxy-4-methoxyphenethyl)amino)-2-(phenylethynyl)-9H-purin-9-yl)bicyclo[3.1.0]hexane-2,3-diol], the “reduction of mA3AR affinity compared to 15” value [4] was 7 fold.
O[C@@H]1[C@H](O)[C@@H]2C[C@@H]2[C@H]1n1cnc2c(NCCc3cccc(Cl)c3)nc(C#Cc3ccc(Cl)s3)nc21 [Compound 26, (1R,2R,3S,4R,5S)-4-(6-((3-Chlorophenethyl)amino)-2-((5-chlorothiophen-2-yl)ethynyl)-9H-purin-9-yl)bicyclo[3.1.0]hexane-2,3-diol] gave a Ki [6] of about 350 nM.
For Oc1ccc(CCNc2nc(C#Cc3ccccc3)nc3c2ncn3[C@H]2[C@H](O)[C@H](O)[C@@H]3C[C@@H]32)cc1 [Compound 10, (1R,2R,3S,4R,5S)-4-(6-((4-Hydroxyphenethyl)amino)-2-(phenylethynyl)-9H-purin-9-yl)bicyclo[3.1.0]hexane-2,3-diol], the “increase of mA3AR affinity compared to 8” value [4] was 6 fold.

From publication PMC7443318 (Journal of medicinal chemistry, 2020)
